Source: patent US4068074A, “Cephalosporin derivatives having at the 3-position of the cephem ring a heterocyclic thiomethyl group with a carboxy or sulfo group and at the 7-position of the cephem ring an α-heterocylic acylaminophenyl-acetamide group” (priority 1974, dated 1978)
Values after ≈ are worked out from the molar mass of the structure shown. Where two headings read alike, the source gives them in different places.

Experiments:
Type in all cases: cell-based
[1] = system: Salmonella typhi H901 W; test: MIC against bacteria (Table I), strain (9); conditions: Salmonella enterica, TYPHI
Source text: (§1) Now, for illustrating the excellent pharmacological effects of the compounds of this invention, the values of MIC (γ/ml.) of the compounds against various bacteria are shown in Table 1, in which the compounds of this invention used are shown by example numbers.
(9) Salmonella typhi H901 W

[2] = system: Shigella flexneri 2a 1675; test: MIC against bacteria (Table I), strain (11); conditions: 2A1675
Source text: as §1

[3] = system: Klebsiella pneumoniae ATCC 10031; test: MIC against bacteria (Table I), strain (8); conditions: ATCC10031
Source text: as §1
(8) Klebsiella pneumoniae ATCC 10031

[4] = system: Staphylococcus Onuma; test: MIC against bacteria (Table I), strain (18)
Source text: as §1
(18) Staphylococcus Onuma

[5] = system: Pseudomonas aeruginosa 99 (Gentamycin resistant); test: MIC against bacteria (Table I), strain (5); conditions: (5) Pseudomonas aeruginosa 99 (Gentamycin resistant); read-out: MIC
Source text: as §1
(5) Pseudomonas aeruginosa 99 (Gentamycin resistant)

[6] = system: Bacillus subtilis ATCC 6633; test: MIC against bacteria (Table I), strain (14); conditions: ATCC6633; (14) Bacillus subtilis ATCC 6633; read-out: MIC
Source text: as §1
(14) Bacillus subtilis ATCC 6633

[7] = system: Psuedomonas ovalis IMA 1002; test: MIC against bacteria (Table I), strain (6); conditions: (6) Psuedomonas ovalis IMA 1002; read-out: MIC
Source text: as §1
(6) Psuedomonas ovalis IMA 1002

[8] = system: Shigella sonnei II 37148; test: MIC against bacteria (Table I), strain (12); conditions: II37148
Source text: as §1

[9] = system: Bacillus megatherium 10778; test: MIC against bacteria (Table I), strain (13); conditions: (13) Bacillus megatherium 10778; read-out: MIC
Source text: as §1

[10] = system: Proteus vulgaris 0X 19US; test: MIC against bacteria (Table I), strain (2); conditions: 0X19US; (2) Proteus vulgaris 0X 19US; read-out: MIC
Source text: as §1
(2) Proteus vulgaris 0X 19US

[11] = system: Micrococcus flavus ATCC 10240; test: MIC against bacteria (Table I), strain (15); conditions: ATCC10240
Source text: as §1
(15) Micrococcus flavus ATCC 10240

[12] = system: Escherichia coli kauffmann 0-1; test: MIC against bacteria (Table I), strain (7); conditions: Escherichia coli
Source text: as §1
(7) Escherichia coli kauffmann 0-1

[13] = system: Staphylococcus Shimanishi; test: MIC against bacteria (Table I), strain (17)
Source text: as §1
(17) Staphylococcus Shimanishi

[14] = system: Proteus mirabilis IXM OM-19; test: MIC against bacteria (Table I), strain (3); conditions: IXMOM19
Source text: as §1
(3) Proteus mirabilis IXM OM-19

[15] = system: Salmonella enteritidis; test: MIC against bacteria (Table I), strain (10); conditions: Salmonella enterica
Source text: as §1
(10) Salmonella enteritidis

[16] = system: Staphylococcus aureus 209P; test: MIC against bacteria (Table I), strain (16)
Source text: as §1
(16) Staphylococcus aureus 209P

[17] = (11) Shigella flexneri 2a 1675, read-out: MIC
[18] = (12) Shigella sonnei II 37148, read-out: MIC
[19] = (3) Proteus mirabilis IXM OM-19, read-out: MIC
[20] = (10) Salmonella enteritidis, read-out: MIC
[21] = (8) Klebsiella pneumoniae ATCC 10031, read-out: MIC
[22] = (16) Staphylococcus aureus 209P, read-out: MIC
[23] = (18) Staphylococcus Onuma, read-out: MIC

| SMILES | MIC [1] [µg/mL] | MIC [2, 17] [µg/mL] | MIC ([4]; Staphylococcus) [µg/mL] | MIC [5] [µg/mL] | MIC [6] [µg/mL] | MIC [7] [µg/mL] | MIC [8, 18] [µg/mL] | MIC [9] [µg/mL] | MIC [10] [µg/mL] | MIC ([11]; Micrococcus flavus) [µg/mL] | MIC [12] [µg/mL] | MIC ([13]; Staphylococcus) [µg/mL] | MIC [14, 19] [µg/mL] | MIC [15, 20] [µg/mL] | MIC ([16]; Staphylococcus aureus, 209P) [µg/mL] | MIC [3, 21] [µg/mL] | MIC [16, 22] [µg/mL] | MIC [4, 23] [µg/mL] | MIC ([15]; ENTERITIDIS) [µg/mL] | other results |
| --- | --- | --- | --- | --- | --- | --- | --- | --- | --- | --- | --- | --- | --- | --- | --- | --- | --- | --- | --- | --- |
| Cc1nc(SCC(=O)O)cc(SCC2=C(C(=O)O)N3C(=O)[C@@H](NC(=O)[C@H](NC(=O)c4cnccc4O)c4ccccc4)[C@H]3SC2)n1 [Example 17, 7-[D-α-(4-hydroxynicotinoylamido)-α-phenylacetamido]-3-(6-carboxymethylthio-2-methylpyrimidin-4-yl)thiomethyl-Δ^3-cephem-4-carboxylic acid] | 3.13 (≈ 4.58 µM) | 3.13 (≈ 4.58 µM) | 6.25 (≈ 9.15 µM) | 50 (≈ 73.2 µM) | 0.39 (≈ 0.571 µM) | 25 (≈ 36.6 µM) | 6.25 (≈ 9.15 µM) | 0.39 (≈ 0.571 µM) | 1.56 (≈ 2.28 µM) | 6.25 (≈ 9.15 µM) | 6.25 (≈ 9.15 µM) | 6.25 (≈ 9.15 µM) | 0.19 (≈ 0.278 µM) | 0.19 (≈ 0.278 µM) | 0.19 (≈ 0.278 µM) | – | – | – | – | MIC ([3]; Klebsiella pneumoniae): 6.25 µg/mL (≈ 9.15 µM) |
| Cc1ncc(C(=O)N[C@@H](C(=O)N[C@@H]2C(=O)N3C(C(=O)O)=C(CSc4nnc(SCC(=O)O)s4)CS[C@H]23)c2ccccc2)c(O)n1 [Example 20, 7-[D-α-(4-hydroxy-2-methylpyrimidin-5-ylcarboxamido)-α-phenylacetamido]-3-(5-carboxymethylthio-1,3,4-thiadiazol-2-yl)thiomethyl-Δ^3-cephem-4-carboxylic acid] | 12.5 (≈ 18.1 µM) | 6.25 (≈ 9.06 µM) | 12.5 (≈ 18.1 µM) | 25 (≈ 36.2 µM) | 3.13 (≈ 4.54 µM) | 50 (≈ 72.5 µM) | 12.5 (≈ 18.1 µM) | 1.56 (≈ 2.26 µM) | < 0.09 | 6.25 (≈ 9.06 µM) | 12.5 (≈ 18.1 µM) | 12.5 (≈ 18.1 µM) | 0.39 (≈ 0.565 µM) | 3.13 (≈ 4.54 µM) | – | 25 (≈ 36.2 µM) | 3.13 (≈ 4.54 µM) | – | – | – |
| O=C(O)Cn1nc(SCC2=C(C(=O)O)N3C(=O)[C@@H](NC(=O)[C@H](NC(=O)c4cnccc4O)c4ccccc4)[C@H]3SC2)ccc1=O [Example 18, 7-[D-α-(4-hydroxynicotinoylamido)-α-phenylacetamido]-3-(1-carboxymethyl-6(1H)-pyridazinon-3-yl)thiomethyl-Δ^3-cephem-4-carboxylic acid] | 3.13 (≈ 4.8 µM) | 12.5 (≈ 19.2 µM) | – | 25 (≈ 38.3 µM) | 0.39 (≈ 0.598 µM) | 25 (≈ 38.3 µM) | 25 (≈ 38.3 µM) | 0.39 (≈ 0.598 µM) | 1.56 (≈ 2.39 µM) | – | 12.5 (≈ 19.2 µM) | – | 0.78 (≈ 1.2 µM) | 1.56 (≈ 2.39 µM) | 1.56 (≈ 2.39 µM) | 25 (≈ 38.3 µM) | – | 6.25 (≈ 9.58 µM) | – | MIC ([11]; (15) Micrococcus flavus ATCC 10240, read-out: MIC): 25 µg/mL (≈ 38.3 µM); MIC ([13]; (17) Staphylococcus Shimanishi, read-out: MIC): 6.25 µg/mL (≈ 9.58 µM) |
| COc1cc(C)ncc1C(=O)N[C@@H](C(=O)N[C@@H]1C(=O)N2C(C(=O)O)=C(CSc3nnc(SCC(=O)O)s3)CS[C@H]12)c1ccccc1 [Example 37, 7[-α-(4-methoxy-6-methylnicotinoylamido)-α-phenylacetamido]-3-(5-carboxymethyl-thio-1,3,4-thiadiazol-2yl)-thiomethyl-Δ^3-cephem-4-carboxylic acid] | 6.25 (≈ 8.89 µM) | 3.13 (≈ 4.45 µM) | – | 12.5 (≈ 17.8 µM) | 0.78 (≈ 1.11 µM) | 25 (≈ 35.6 µM) | 6.25 (≈ 8.89 µM) | 1.56 (≈ 2.22 µM) | 25 (≈ 35.6 µM) | 6.25 (≈ 8.89 µM) | 6.25 (≈ 8.89 µM) | 6.25 (≈ 8.89 µM) | – | – | 1.56 (≈ 2.22 µM) | 12.5 (≈ 17.8 µM) | – | 12.5 (≈ 17.8 µM) | 3.13 (≈ 4.45 µM) | MIC ([14]; Proteus mirabilis): 3.13 µg/mL (≈ 4.45 µM) |
| O=C(O)CSc1nnc(SCC2=C(C(=O)O)N3C(=O)[C@@H](NC(=O)[C@H](NC(=O)c4csccc4=O)c4ccc(O)cc4)[C@H]3SC2)s1 [Example 31, 7-[D-α-(4-thiopyrone-3-carboxamido)-α-p-hydroxyphenylacetamido]-3-[5-carboxymethylthio-1,3,4-thiadiazol-2-yl]thiomethyl-Δ^3-cephem-4-carboxylic acid] | 0.39 (≈ 0.551 µM) | – | – | 50 (≈ 70.6 µM) | 0.39 (≈ 0.551 µM) | 50 (≈ 70.6 µM) | – | 0.39 (≈ 0.551 µM) | 1.56 (≈ 2.2 µM) | 3.13 (≈ 4.42 µM) | 3.13 (≈ 4.42 µM) | 3.13 (≈ 4.42 µM) | 0.39 (≈ 0.551 µM) | – | – | 6.25 (≈ 8.83 µM) | 0.39 (≈ 0.551 µM) | 6.25 (≈ 8.83 µM) | 0.39 (≈ 0.551 µM) | MIC ([2]; Shigella flexneri): 0.78 µg/mL (≈ 1.1 µM); MIC ([8]; Shigella sonnei): 3.13 µg/mL (≈ 4.42 µM) |
